Measurements taken from a compilation of properties of binary mixtures (doi:10.1021/jp502400z).

Assay: xn = mol fraction of the nth substance listed
Details: 298.15 K, 101 kPa

SMILES: O + CC(=O)[O-].CC[NH2+]CC
- speed of sound (x1 = 1): 1496 m/s

SMILES: O + CC[NH2+]CC.O=S(=O)([O-])O
- speed of sound (x1 = 1): 1496 m/s
- viscosity (x1 = 1): 0.89 mPa·s

SMILES: O + CC[NH+](CC)CC.O=S(=O)([O-])O
- speed of sound (x1 = 1): 1496 m/s
- viscosity (x1 = 1): 0.89 mPa·s

SMILES: O + C[NH+](C)C.O=S(=O)([O-])O
- speed of sound (x1 = 1): 1496 m/s
- viscosity (x1 = 1): 0.89 mPa·s

SMILES: CC(=O)[O-].CC[NH2+]CC + O
- speed of sound (x2 = 0): 1608 m/s
- speed of sound (x2 = 0.0881): 1602 m/s
- speed of sound (x2 = 0.1637): 1599 m/s
- speed of sound (x2 = 0.2293): 1598 m/s
- speed of sound (x2 = 0.2866): 1597 m/s
- speed of sound (x2 = 0.3373): 1596 m/s
- speed of sound (x2 = 0.459): 1594 m/s
- speed of sound (x2 = 0.5741): 1589 m/s
- speed of sound (x2 = 0.6182): 1585 m/s
- speed of sound (x2 = 0.6562): 1581 m/s
- speed of sound (x2 = 0.7179): 1572 m/s
- speed of sound (x2 = 0.7433): 1568 m/s
- speed of sound (x2 = 0.8208): 1551 m/s
- speed of sound (x2 = 0.8735): 1538 m/s
- speed of sound (x2 = 0.8941): 1532 m/s
- speed of sound (x2 = 0.9197): 1524 m/s
- speed of sound (x2 = 0.9468): 1516 m/s
- speed of sound (x2 = 0.9634): 1510 m/s

SMILES: CC(=O)[O-].C[NH+](C)C + O
- speed of sound (x1 = 0.0451): 1499 m/s
- viscosity (x1 = 0.0451): 1.199 mPa·s
- speed of sound (x1 = 0.0651): 1503 m/s
- viscosity (x1 = 0.0651): 1.31 mPa·s
- speed of sound (x1 = 0.0978): 1504 m/s
- viscosity (x1 = 0.0978): 1.5 mPa·s
- speed of sound (x1 = 0.1283): 1507 m/s
- viscosity (x1 = 0.1283): 1.64 mPa·s
- speed of sound (x1 = 0.1524): 1510 m/s
- viscosity (x1 = 0.1524): 1.75 mPa·s
- speed of sound (x1 = 0.2133): 1517 m/s
- viscosity (x1 = 0.2133): 1.99 mPa·s
- speed of sound (x1 = 0.3002): 1525 m/s
- viscosity (x1 = 0.3002): 2.24 mPa·s
- speed of sound (x1 = 0.328): 1527 m/s
- viscosity (x1 = 0.328): 2.31 mPa·s
- speed of sound (x1 = 0.3943): 1532 m/s
- viscosity (x1 = 0.3943): 2.43 mPa·s
- speed of sound (x1 = 0.4341): 1534 m/s
- viscosity (x1 = 0.4341): 2.48 mPa·s
- speed of sound (x1 = 0.4797): 1535 m/s
- viscosity (x1 = 0.4797): 2.52 mPa·s
- speed of sound (x1 = 0.5325): 1537 m/s
- viscosity (x1 = 0.5325): 2.56 mPa·s
- speed of sound (x1 = 0.6292): 1538 m/s
- viscosity (x1 = 0.6292): 2.61 mPa·s
- speed of sound (x1 = 0.7094): 1539 m/s
- viscosity (x1 = 0.7094): 2.62 mPa·s
- speed of sound (x1 = 0.7556): 1540 m/s
- viscosity (x1 = 0.7556): 2.63 mPa·s
- speed of sound (x1 = 0.9278): 1542 m/s
- viscosity (x1 = 0.9278): 2.69 mPa·s
- speed of sound (x1 = 1): 1544 m/s
- viscosity (x1 = 1): 2.76 mPa·s

SMILES: CC[NH+](CC)CC.O=S(=O)([O-])O + O
- speed of sound (x2 = 0): 1874 m/s
- viscosity (x2 = 0): 235 mPa·s
- speed of sound (x2 = 0.1228): 1828 m/s
- viscosity (x2 = 0.1228): 210 mPa·s
- speed of sound (x2 = 0.2209): 1819 m/s
- viscosity (x2 = 0.2209): 195 mPa·s
- speed of sound (x2 = 0.3679): 1836 m/s
- viscosity (x2 = 0.3679): 176 mPa·s
- speed of sound (x2 = 0.4728): 1844 m/s
- viscosity (x2 = 0.4728): 162 mPa·s
- speed of sound (x2 = 0.5147): 1843 m/s
- viscosity (x2 = 0.5147): 156 mPa·s
- speed of sound (x2 = 0.6613): 1795 m/s
- viscosity (x2 = 0.6613): 129 mPa·s
- speed of sound (x2 = 0.7011): 1772 m/s
- viscosity (x2 = 0.7011): 120 mPa·s
- speed of sound (x2 = 0.7866): 1702 m/s
- viscosity (x2 = 0.7866): 95.2 mPa·s
- speed of sound (x2 = 0.8075): 1677 m/s
- viscosity (x2 = 0.8075): 87.3 mPa·s
- speed of sound (x2 = 0.869): 1616 m/s
- viscosity (x2 = 0.869): 63.1 mPa·s
- speed of sound (x2 = 0.9091): 1581 m/s
- viscosity (x2 = 0.9091): 48.8 mPa·s
- speed of sound (x2 = 0.9432): 1542 m/s
- viscosity (x2 = 0.9432): 29.5 mPa·s
- speed of sound (x2 = 0.9627): 1526 m/s
- viscosity (x2 = 0.9627): 19.9 mPa·s
- speed of sound (x2 = 0.9743): 1507 m/s
- viscosity (x2 = 0.9743): 14.14 mPa·s

SMILES: CC[NH2+]CC.O=S(=O)([O-])O + O
- speed of sound (x2 = 0.1212): 1426 m/s
- viscosity (x2 = 0.1212): 30.4 mPa·s
- speed of sound (x2 = 0.2183): 1429 m/s
- viscosity (x2 = 0.2183): 29.6 mPa·s
- speed of sound (x2 = 0.2979): 1433 m/s
- viscosity (x2 = 0.2979): 30.1 mPa·s
- speed of sound (x2 = 0.3644): 1436 m/s
- viscosity (x2 = 0.3644): 31 mPa·s
- speed of sound (x2 = 0.4207): 1437 m/s
- viscosity (x2 = 0.4207): 31.3 mPa·s
- speed of sound (x2 = 0.5476): 1443 m/s
- viscosity (x2 = 0.5476): 32.3 mPa·s
- speed of sound (x2 = 0.6578): 1441 m/s
- viscosity (x2 = 0.6578): 31.4 mPa·s
- speed of sound (x2 = 0.6979): 1440 m/s
- viscosity (x2 = 0.6979): 30.2 mPa·s
- speed of sound (x2 = 0.7314): 1439 m/s
- viscosity (x2 = 0.7314): 28.8 mPa·s
- speed of sound (x2 = 0.7841): 1437 m/s
- viscosity (x2 = 0.7841): 26 mPa·s
- speed of sound (x2 = 0.8051): 1438 m/s
- viscosity (x2 = 0.8051): 24.6 mPa·s
- speed of sound (x2 = 0.8673): 1439 m/s
- viscosity (x2 = 0.8673): 19.3 mPa·s
- speed of sound (x2 = 0.9079): 1444 m/s
- viscosity (x2 = 0.9079): 15.14 mPa·s
- speed of sound (x2 = 0.9233): 1448 m/s
- viscosity (x2 = 0.9233): 13.51 mPa·s
- speed of sound (x2 = 0.9424): 1454 m/s
- viscosity (x2 = 0.9424): 11.06 mPa·s
- speed of sound (x2 = 0.9622): 1461 m/s
- viscosity (x2 = 0.9622): 8.48 mPa·s
- speed of sound (x2 = 0.9741): 1468 m/s
- viscosity (x2 = 0.9741): 6.19 mPa·s

SMILES: C[NH+](C)C.O=S(=O)([O-])O + O
- speed of sound (x2 = 0): 1564 m/s
- viscosity (x2 = 0): 5.1 mPa·s
- speed of sound (x2 = 0.1369): 1553 m/s
- viscosity (x2 = 0.1369): 4.86 mPa·s
- speed of sound (x2 = 0.1942): 1555 m/s
- viscosity (x2 = 0.1942): 4.74 mPa·s
- speed of sound (x2 = 0.2919): 1558 m/s
- viscosity (x2 = 0.2919): 4.53 mPa·s
- speed of sound (x2 = 0.3723): 1562 m/s
- viscosity (x2 = 0.3723): 4.34 mPa·s
- speed of sound (x2 = 0.4691): 1565 m/s
- viscosity (x2 = 0.4691): 4.05 mPa·s
- speed of sound (x2 = 0.5219): 1564 m/s
- viscosity (x2 = 0.5219): 3.88 mPa·s
- speed of sound (x2 = 0.6073): 1556 m/s
- viscosity (x2 = 0.6073): 3.54 mPa·s
- speed of sound (x2 = 0.6734): 1541 m/s
- viscosity (x2 = 0.6734): 3.22 mPa·s
- speed of sound (x2 = 0.7012): 1531 m/s
- viscosity (x2 = 0.7012): 3.08 mPa·s
- speed of sound (x2 = 0.7878): 1502 m/s
- viscosity (x2 = 0.7878): 2.58 mPa·s
- speed of sound (x2 = 0.8724): 1472 m/s
- viscosity (x2 = 0.8724): 2.01 mPa·s
- speed of sound (x2 = 0.9027): 1470 m/s
- viscosity (x2 = 0.9027): 1.76 mPa·s
- speed of sound (x2 = 0.9352): 1466 m/s
- viscosity (x2 = 0.9352): 1.49 mPa·s
